Measured values published in patent US7780978B2, “Oral pharmaceutical compositions and methods of using the same” (Childrens Hospital Los Angeles, priority 2003, dated 2010).

Columns and labels:
[1] = Steady state plasma and tissue levels of 4-HPR in mice fed or gavaged LXS compositions vs capsule contents (HPLC); assay type: in vivo; settings: mice, 120, 250 and 560 mg/kg/day
Experimental: FIG. 1. Comparison of 4-HPR in LXS matrix vs Capsule Formulation at 120 mg/kg/day. Cohorts of five mice were feed with 120 mg/kg/day of 4-HPR formulated in various LXS compositions, or 4-HPR expressed from capsules, mixed with mouse chow or Slim-Fast®, divided BID, ×4.5 days. Animals were sacrificed 3 hrs after the last dose and 4-HPR levels in plasma and tissues were assayed by HPLC. […] PLASMA: G1 vs capsule, P=0.006; LYM-X 5.59 vs capsule, P=0.06; LIVER: G1 vs capsule, P=0.013; LYM-X 5.59 vs capsule, P=0.045; LUNGS: G1 vs capsule, P=0.028; G2 vs capsule, P=0.05; KIDNEY: G1 vs capsule, P=0.007; LYM-X 5.59 vs capsule, P=0.06; BRAIN: G1 vs capsule, P=0.01; LYM-X 5.58 vs capsule, P=0.02. Statistical analysis by Student's t-test. Columns, in each set of columns, in sequence from left to right, represent LYM-X 5.57, LYM-X 5.58, LYM-X 5.60, LYM-X 5.59, Capsule Lot #R-6124, LYM-X 5.60 G1 (SLIMFAST™), and LYM-X 5.60 G2 (DI Water).
FIG. 2. Comparison of 4-HPR in LXS™ matrix vs Capsule Formulation at 250 mg/kg/day. […]
To test this hypothesis, we had various LXS™ compositions of 4-HPR prepared that varied in the LPC:MG:FA ratios of the LXS™ matrix. We then feed mice with equal doses of 4-HPR in the LXS™ compositions, or expressed as a slurry from the current oral 4-HPR capsules. […]

[2] = cited from earlier work

CC1=C(/C=C/C(C)=C/C=C/C(C)=C/C(=O)Nc2ccc(O)cc2)C(C)(C)CCC1 [Fenretinide, all-trans-N-(4-hydroxyphenyl)retinamide]
dose dependence of 4-HPR plasma and tissue levels [1]: dose-dependent
solubility in aqueous solution [2]: minimally soluble
